Patent publication US20260166031A1, “Methods of Treating Lipedema and Lymphatic Disease of the Subcutaneous Tissue” (Celltaxis, LLC, priority 2023, published 2026)
Converted amounts (≈) assume the structure as drawn. “Also recorded” adds a separate entry of the source. Like-named read-outs stand apart in the source and are kept apart here.

Columns and labels:
[1] = target: T1, LTA4H aminopeptidase activity (Homo sapiens, UniProt P09960)
T1 sequence (P09960 1-611): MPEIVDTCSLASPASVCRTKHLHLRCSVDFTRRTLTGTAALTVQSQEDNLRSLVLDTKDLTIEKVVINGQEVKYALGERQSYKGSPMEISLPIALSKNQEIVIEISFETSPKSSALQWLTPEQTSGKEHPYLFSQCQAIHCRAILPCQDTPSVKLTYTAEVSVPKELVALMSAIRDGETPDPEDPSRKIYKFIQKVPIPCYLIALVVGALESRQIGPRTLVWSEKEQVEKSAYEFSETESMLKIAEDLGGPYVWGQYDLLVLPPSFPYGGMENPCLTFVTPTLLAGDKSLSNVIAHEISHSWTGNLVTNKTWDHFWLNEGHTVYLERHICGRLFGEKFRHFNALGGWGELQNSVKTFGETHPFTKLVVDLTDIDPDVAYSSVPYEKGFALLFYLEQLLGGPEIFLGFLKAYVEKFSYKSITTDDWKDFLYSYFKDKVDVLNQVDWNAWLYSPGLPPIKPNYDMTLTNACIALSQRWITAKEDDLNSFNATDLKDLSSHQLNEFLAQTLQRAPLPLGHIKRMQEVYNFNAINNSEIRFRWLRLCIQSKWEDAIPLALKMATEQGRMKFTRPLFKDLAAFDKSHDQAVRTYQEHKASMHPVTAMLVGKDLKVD

[2] = target: T2, LTA4H (Homo sapiens, UniProt P09960); details: cited from earlier work
T2 sequence (P09960 1-611): T1 sequence (P09960 1-611)

[3] = test system: affected limb of lymphedema patients; assay: Expanded access program, bioimpedance of affected limb; type: in vivo, human; details: 6 months vs baseline; p<0.01; higher bioimpedance = lower water content
From the text: Bioimpedance is a measure of water content, and a higher bioimpedance corresponds to a lower water content.
FIGS. 5A, 5B and 5C are graphs presenting the same data as change in bioimpedance (as compared to baseline) over time.

[4] = test system: neutrophil swarming; assay: Neutrophil swarming in vitro in response to factors in human CF sputum; details: acebilustat 48 ng/mL, factors present in human CF sputum
[5] = test system: upper limb lymphedema patient; assay: HEAL Phase 2 trial case report, dermal ultrasound of forearm; type: in vivo, human; details: Stage II lymphedema subject
From the text: We present the early ultrasonographic responses of a participant who has completed 3 months of a total 6-month exposure. The primary endpoint for this trial involves quantitative analysis of dermal ultrasound skin changes.
These preliminary results lend great promise to the HEAL trial.

[6] = test system: affected (lymphedematous) limb of lymphedema patients; assay: Expanded access program, skin thickness of affected limb by caliper; type: in vivo, human; details: p<0.0001
Method: Skin thickness was measured by caliper.
At 6 months, a 43% reduction in skin thickness was observed (mean for 10 patients; p<0.0001).

[7] = test system: affected limb of lymphedema patients; assay: Expanded access program, limb volume; type: in vivo, human; details: 6 months; mean for 6 patients; p<0.03
From the text: At 6 months, a 6.7% reduction in limb volume was observed (mean for 6 patients; p<0.03).

[8] = test system: lymphedema patients; assay: Expanded access program, dermal ultrasound; type: in vivo, human
[9] = test system: LTB4 production in human whole blood; assay: Human whole blood ex vivo LTB4 production; type: cell-based; details: human whole blood tested ex vivo; read-out: approximate IC50, LTB4 production
Method: The hydrolase-homogeneous time resolved fluorescence assay is a two-step assay that measures the hydrolysis of LTA4 to LTB4 by analyzing the amount of LTB4 produced. The first step involves the enzymatic conversion of LTA4 to LTB4 and the second step involves the quantification of the LTB4 formed with a homogeneous time resolved fluorescence assay. […] In the whole blood assay, the inhibitor compounds are tested for their ability to inhibit LTB4 release upon stimulation with calcium ionophore and the LTB4 levels in supernatants are measured by ELISA.

[10] = test system: LTB4 production; assay: Pharmacodynamic studies in humans, LTB4 production/inhibition; type: in vivo, human
[11] = test system: lymphedema patients; assay: Expanded access program, LymVAS quality of life; type: in vivo, human; details: as early as 3 months, maintained at 6 months; 11 EAP patients
Method: Quality of life indicators were also evaluated in the 11 EAP patients using LymVAS, a tool to interrogate lymphedema patient experience and is based on experience and practice from prior lymphedema trials. LymVAS uses a sliding visual analog scale, wherein patients move the slider along a line to indicate the degree of response to a question. LymVAS has two segments: 1.

[12] = test system: sputum white blood cells and neutrophils of CF patients; assay: Sputum cell counts in CF patients
[13] = test system: adult patients with CF; details: 48 weeks of treatment; Phase II adult CF patients; cited from earlier work
[14] = target: T3, LTA4H epoxide hydrolase activity (Homo sapiens, UniProt P09960); details: Table 3; read-out: Epoxide Hydrolase IC50 ± SEM; cited from earlier work
T3 sequence (P09960 1-611): T1 sequence (P09960 1-611)

[15] = Table 2; read-out: Aminopeptidase IC50 ± SEM; cited from earlier work
[16] = Table 3; read-out: Aminopeptidase IC50 ± SEM; cited from earlier work
[17] = 3 months of treatment vs baseline
[18] = 3 months of treatment vs baseline, listed as Acebilustat
[19] = patient with right leg lymphedema, at 6 months

## CC(=O)Oc1ccc(/C=C/c2cc(OC(C)=O)cc(OC(C)=O)c2)cc1 [Cmpd 4]
[1]; Table 1; read-out: Aminopeptidase IC50 ± SEM; cited from earlier work
  IC50: > 100 µM

## CCOc1cc(O)cc(CCc2ccc(O)cc2)c1 [Cmpd 7]
[1]; [15]
  IC50: > 100 µM

## COc1cc(O)cc(CCc2ccccc2O)c1 [Cmpd 9]
[1]; [15]
  IC50: > 100 µM

## O=c1c(-c2ccccc2)coc2cc(O)ccc12 [Cmpd 13]
[1]; [16]
  IC50: > 100 µM

## CC(C)C[C@H](NC(=O)[C@@H](O)[C@H](N)Cc1ccccc1)C(=O)O [Ubenimex]
[2]
  potency at inhibiting LTB4 generation versus PGP degradation (selectivity class): non-selective LTA4H inhibitor

## O=C(O)c1ccc(CN2C[C@@H]3C[C@H]2CN3Cc2ccc(Oc3ccc(-c4ncco4)cc3)cc2)cc1 [acebilustat, 4-{[(1S,4S)-5-({4-[4-oxazol-2-yl-phenoxy]phenyl}methyl)-2,5-diazabicyclo[2.2.1]heptan-2-yl]methyl}benzoic acid]
[3]
  bioimpedance (water content) of affected limb: significantly lower water content; also recorded: significantly higher bioimpedance
[4]
  reduction of neutrophil swarming: 80%
[5]; 3 months of treatment
  demarcation of dermo-epidermal junction and subcutaneous fascial bands: enhanced demarcation
[5]; [17]
  dermal echogenicity by ultrasound: reduced echogenicity
  dermal thickness by ultrasound: reduced dermal thickness
  subcutaneous tissue echogenicity: decreased
[5]; [18]
  dermal thickness by ultrasound: reduced
  subcutaneous tissue echogenicity: reduced
[6]; 3 months after acebilustat treatment vs baseline, caliper
  skin thickness of affected limb: dramatically reduced; also recorded: significant decrease
[6]; 6 months vs baseline, mean for 10 patients
  reduction in skin thickness: 43%
[7]
  reduction in limb volume: 6.7%
[8]; different patient (FIG. 7), after 6 months of treatment
  reduction in subcutaneous thickness: 15.2%
[8]; [19]
  reduction of dermal thickness: 3.7%
  reduction of subdermal thickness: over 20.2%
  reduction of total thickness: 17.6%
[9]
  IC50: ~0.0308 µg/mL (≈ 0.064 µM)
[10]; 50 mg dose, human pharmacodynamic studies
  inhibition at 50 mg: ≥ 63%
[10]; 100 mg dose, human pharmacodynamic studies
  inhibition at 100 mg: ≥ 74%
[10]; 150 mg dose, human pharmacodynamic studies
  inhibition at 150 mg: ≥ 82%
[10]; 200 mg, human pharmacodynamic studies
  LTB4 inhibition: at least 85%
[10]; Homo sapiens, pharmacodynamic studies in humans, read-out: estimated in vivo EC50, inhibition of LTB4 production
  EC50: 0.093 µg/mL (≈ 0.193 µM)
[11]
  LymVAS Total Change Score: significant improvement
  LymVAS quality of life Total Status Score: significant improvement
[12]; 100 mg acebilustat group
  decrease of sputum white blood cells from Baseline: 60%
[12]; 100 mg group
  decrease of sputum neutrophils: 65%
[12]; all treated patients (doses of 50 to 100 mg)
  decrease of sputum neutrophils: 34%
[12]; all treated subjects (doses of 50 or 100 mg)
  decrease of sputum white blood cells from Baseline: 31%
[13]
  rate of pulmonary exacerbations: showed promise in reducing the rate of pulmonary exacerbations
  risk of infection: no evidence of increased risk of infection

## O=C(Cc1ccc(O)cc1)c1ccc(O)cc1O [Cmpd 10]
[1]; [16]
  IC50: > 100 µM

## O=c1c(-c2ccc(O)cc2)coc2cc(O)ccc12 [Cmpd 11]
[1]; read-out: Aminopeptidase IC50 ± SEM; Table 3; cited from earlier work
  IC50: > 100 µM

## COc1cc(O)cc(CCc2cccc(O)c2)c1 [Cmpd 8]
[1]; [15]
  IC50: > 100 µM

## COc1cc(O)cc(CCc2ccc(O)cc2)c1 [Cmpd 6]
[1]; [15]
  IC50: > 100 µM

## O=c1c(-c2ccc(O)cc2)coc2c(O)c(O)ccc12 [Cmpd 12]
[14]
  IC50: 7.3 ± 0.8 µM
